# Data: patent US20230131966A1, “FUNGICIDAL AMIDES” (FMC Corporation, priority 2020, published 2023)
# Key:
# Assay type in all cases: in vivo
# Zymoseptoria tritici = assay: Test C: wheat leaf blotch control on wheat seedlings; conditions: for Test C disease control rating: 250 ppm, wheat seedlings, 100 = 100% disease control, 0 = no control
# Botrytis cinerea = assay: Test E: tomato Botrytis control on tomato seedlings; conditions: for Test E disease control rating: 250 ppm, 100 = 100% disease control, 0 = no control
# Plasmopara viticola = assay: Test D: grape downy mildew control on grape seedlings; conditions: for Test D disease control rating: 250 ppm, 100 = 100% disease control, 0 = no control
# Phakopsora pachyrhizi = assay: Test A: Asian soybean rust control on soybean seedlings; conditions: for Test A disease control rating: 250 ppm, soybean seedlings, 100 = 100% disease control, 0 = no control
# [1] = tested on: Puccinia recondita f. sp. tritici; assay: Test B: wheat leaf rust control on wheat seedlings; conditions: for Test B disease control rating: 250 ppm, wheat seedlings, 100 = 100% disease control, 0 = no control
# [2] = tested on: Erysiphe graminis f. sp. tritici; assay: Test G: wheat powdery mildew control on wheat seedlings; conditions: for Test G disease control rating: 250 ppm, 100 = 100% disease control, 0 = no control
# Phytophthora infestans = assay: whole plant or invertebrate; conditions: tomato seedlings; for Test F disease control rating: 250 ppm, 100 = 100% disease control, 0 = no control
# [3] = rate 250 ppm, relative to the controls
SMILES,Test C disease control rating (Zymoseptoria tritici) [%],Test E disease control rating (Botrytis cinerea) [%],Test D disease control rating (Plasmopara viticola) [%],Test A disease control rating (Phakopsora pachyrhizi) [%],Test B disease control rating [1] [%],Test G disease control rating [2] [%],Test F disease control rating (Phytophthora infestans) [%],"Test C disease control rating (100 = 100% disease control, 0 = no disease control) (Zymoseptoria tritici; [3]) [%]","Test E disease control rating (100 = 100% disease control, 0 = no disease control) (Botrytis cinerea; [3]) [%]","Test D disease control rating (100 = 100% disease control, 0 = no disease control) (Plasmopara viticola; [3]) [%]","Test A disease control rating (100 = 100% disease control, 0 = no disease control) (Phakopsora pachyrhizi; [3]) [%]","Test B disease control rating (100 = 100% disease control, 0 = no disease control) [1, 3] [%]","Test G disease control rating (100 = 100% disease control, 0 = no disease control) [2, 3] [%]","Test F disease control rating (100 = 100% disease control, 0 = no disease control) (Phytophthora infestans; [3]) [%]"
COc1ccnc(C(=O)N[C@@H](C)C(=O)OC(C)c2cccc(OC3CCC(C)(C)CC3)c2)c1OC(C)=O (stereo partly drawn) [Compound 137],92,0,11,100,100,43,0,,,,,,,
COc1ccnc(C(=O)NC(C)C(=O)OC(C)c2cccc(C3CC3)c2)c1OC(C)=O (mixture of isomers) [Compound 157],86,0,63,100,100,0,0,,,,,,,
COc1ccnc(C(=O)NC(C)C(=O)OC(C)c2ccc(C3CCCCC3)cc2)c1OS(C)(=O)=O (mixture of isomers) [Compound 156],13,0,7,89,68,0,17,,,,,,,
"COc1ccnc(C(=O)N[C@@H](C)C(=O)OC(C)c2ccccc2Cc2ccc(F)cc2)c1OC(C)=O (single isomer, unassigned) [Compound 11]",13,0,30,0,19,0,0,,,,,,,
COc1ccnc(C(=O)NC(C)C(=O)OC(C)C2CCCCC2)c1O (mixture of isomers) [Compound 126],10,0,3,0,0,0,0,,,,,,,
C=CCOc1c(OC)ccnc1C(=O)NC(C)C(=O)OC(C)c1ccc(C2CCCCC2)cc1 (mixture of isomers) [Compound 153],24,0,70,100,95,0,26,,,,,,,
"COc1ccnc(C(=O)N[C@@H](C)C(=O)OC(C)c2ccc(F)cc2Cc2ccc(F)cc2)c1OC(C)=O (single isomer, unassigned) [Compound 58]",86,0,27,98,99,0,0,,,,,,,
COc1ccnc(C(=O)NC(C)C(=O)OC(C)C2COc3ccccc32)c1OC(C)=O (mixture of isomers) [Compound 191],,,,,,,,89,0,26,100,96,21,0
CCC(OC(=O)C(C)NC(=O)c1nccc(OC)c1O)c1ccc(C2CCCCC2)cc1 (mixture of isomers) [Compound 72],27,0,62,100,92,35,0,,,,,,,
COc1ccnc(C(=O)N[C@@H](C)C(=O)OC(C)c2ccc(-n3ccc(C(F)(F)F)n3)cc2Cc2ccccc2)c1O (stereo partly drawn) [Compound 93],72,0,0,99,74,0,0,,,,,,,
CCCCCCc1ccc(C(C)OC(=O)C(C)NC(=O)c2nccc(OC)c2O)cc1 (mixture of isomers) [Compound 68],97,0,46,100,95,0,40,,,,,,,
COc1ccnc(C(=O)NC(C)C(=O)OC(C)c2ccccc2-n2ccc(C(F)(F)F)n2)c1O (mixture of isomers) [Compound 26],47,0,43,73,0,0,0,,,,,,,
"COc1ccnc(C(=O)N[C@@H](C)C(=O)OC(C)c2ccc(CC3CCCCC3)cc2)c1OC(C)=O (single isomer, unassigned) [Compound 128]",83,0,57,95,90,0,0,,,,,,,
"CCC(OC(=O)[C@H](C)NC(=O)c1nccc(OC)c1OC(C)=O)C1CCCCC1 (single isomer, unassigned) [Compound 169]",83,0,17,100,41,35,0,,,,,,,
"COc1ccnc(C(=O)N[C@@H](C)C(=O)OC(C)c2ccccc2Cc2ccc(F)cc2)c1OC(C)=O (single isomer, unassigned) [Compound 22]",85,0,61,100,99,0,0,,,,,,,
"COc1ccnc(C(=O)N[C@@H](C)C(=O)OC(C)c2ccc(F)cc2Cc2ccccc2)c1OC(C)=O (single isomer, unassigned) [Compound 38]",53,0,44,0,41,0,0,,,,,,,
COc1ccnc(C(=O)NC(C)C(=O)OC(C)c2ccc(-n3ccc(C(F)(F)F)n3)cc2-n2ccc(C(F)(F)F)n2)c1O (mixture of isomers) [Compound 89],0,0,16,0,0,0,0,,,,,,,
COc1ccnc(C(=O)NC(C)C(=O)OC(C)C2CCC(C(F)(F)F)CC2)c1OC(C)=O (mixture of isomers) [Compound 180],95,0,51,100,99,0,26,,,,,,,
